Source: article PMC8134461, “A physicochemical assessment of the thermal stability of dextrin–colistin conjugates” (Scientific Reports, 2021)
Where a name gives a salt, the structure may show the parent alone. Positions of bridges follow the written chain, without caps; N, C: chain ends. Non-standard residues stand in square brackets, D forms with d. Residues, ends and D or L forms follow the SMILES beside them. *: point of attachment. X1 = CC[C@H](C)CCCCC(=O)*; Dab = NCC[C@H](N)C(=O)O

How the values were obtained:
[1] = test system: V5 Escherichia coli AIM-1, V6 Klebsiella pneumoniae IR25 and V19 Acinetobacter baumannii 7789; test: Antimicrobial activity after storage, MIC assay, statement over all test strains; format: cell-based; details: repeated freeze–thaw or storage in solution for up to 12 months at -20, 4 or 21 °C
Method: (§1) The clinical isolates (V5 Escherichia coli AIM-1, V6 Klebsiella pneumoniae IR25 and V19 Acinetobacter baumannii 7789) and susceptibility testing method have been previously described by Khan et al.[33] Bacterial colonies were grown on blood agar supplemented with 5% v/v defibrinated horse blood. Overnight cultures were prepared in tryptone soy broth (TSB) and Mueller–Hinton broth (MHB) was used for MIC determination (LabM; Bury, UK).
(§2) Three primary batches of colistin sulfate, CMS and dextrin-colistin conjugates were dissolved in PBS at 3 mg/mL and stored at − 20, 4, 21 and 37 °C for 0, 1, 3, 6, 9 and 12 months. In addition, to test the effect of repeated freeze–thaw on stability, a separate set of solutions were stored at − 20 °C and defrosted for 1 h at 20–22 °C weekly for 5 cycles. Samples were analyzed using FPLC (free drug) and GPC (saccharide release) and antimicrobial activity, UV/vis absorbance and protein content (bicinchoninic acid (BCA) assay) of the samples stored for 12 months was assessed.
The minimum inhibitory concentration (MIC) of colistin sulphate, CMS and dextrin-colistin conjugates was determined using the broth microdilution method in MH broth in accordance with standard guidelines. […] Results were expressed as mode (n = 3).

[2] = test system: V19 Acinetobacter baumannii 7789; format: cell-based; details: 16–20 h, mode (n = 3), equivalent colistin concentration for conjugates; for MIC, Initial: before storage, 3 mg/mL in PBS, broth microdilution in MH broth; for MIC, storage temperature 4 °C: stored in PBS at 4 °C for 12 months; for MIC, storage temperature 4 °C / MIC, storage temperature 21 °C / MIC, storage temperature 37 °C / MIC, storage temperature -20 °C / MIC, repeat freeze–thaw: broth microdilution, MH broth; for MIC, storage temperature 21 °C: stored in PBS at 21 °C for 12 months; for MIC, storage temperature 37 °C: stored in PBS at 37 °C for 12 months; for MIC, storage temperature -20 °C: stored in PBS at -20 °C for 12 months; for MIC, repeat freeze–thaw: weekly freeze-thawing for 5 weeks (-20 °C, defrosted 1 h at 20–22 °C)
Method: as §1, §2
(§3) The minimum inhibitory concentration (MIC) of colistin sulphate, CMS and dextrin-colistin conjugates was determined using the broth microdilution method in MH broth in accordance with standard guidelines. Test organisms were suspended in MH broth (100 µL, 5 × 10^5 colony forming units (CFU)/mL) and incubated in 96-well microtitre plates in serial two-fold dilutions of the test compounds. The MIC was defined as the lowest concentration of test compound that produced no visible growth after 16–20 h. Results were expressed as mode (n = 3).

[3] = test system: V6 Klebsiella pneumoniae IR25; format: cell-based; details: 16–20 h, mode (n = 3), equivalent colistin concentration for conjugates; for MIC, Initial: before storage, 3 mg/mL in PBS, broth microdilution in MH broth; for MIC, storage temperature 4 °C: stored in PBS at 4 °C for 12 months; for MIC, storage temperature 4 °C / MIC, storage temperature 21 °C / MIC, storage temperature 37 °C / MIC, storage temperature -20 °C / MIC, repeat freeze–thaw: broth microdilution, MH broth; for MIC, storage temperature 21 °C: stored in PBS at 21 °C for 12 months; for MIC, storage temperature 37 °C: stored in PBS at 37 °C for 12 months; for MIC, storage temperature -20 °C: stored in PBS at -20 °C for 12 months; for MIC, repeat freeze–thaw: weekly freeze-thawing for 5 weeks (-20 °C, defrosted 1 h at 20–22 °C)
Method: as §1, §2, §3

[4] = Stability during storage in PBS: saccharide release and elution profile by GPC; format: physicochemical; details: 3 mg/mL in PBS, up to 12 months; Ultrahydrogel 120, RI; CMS: after storage above -20 °C
Method: as §2
GPC was performed using an Ultrahydrogel guard column and two Ultrahydrogel 120 columns (7.8 mm × 300 mm) from Waters (Elstree, UK) in series, connected to a Jasco PU-1580 HPLC pump with PBS buffer eluent and a flow rate of 1 mL/min. Samples (300 μL) were injected into a 100 μL loop and the eluate was monitored using a Jasco MD-2010 multi-wavelength UV detector (210 and 280 nm) and a Gilson 153 differential refractometer (Middleton, WI, USA) connected to a Polymer Laboratories PL DataStream (Church Stretton, UK). Dual detection enabled distinction of dextrin and saccharide components that are not bound to colistin. Cirrus GPC software (version 3.2, 2006) from Polymer Laboratories (Church Stretton, UK) was used for data analysis. Glucose and maltose oligomers (DP 2, 3, 6 and 7) were employed for calibration. […]

[5] = test system: V5 Escherichia coli AIM-1; test: MIC assay (broth microdilution) after storage; format: cell-based; details: 16–20 h, mode (n = 3), equivalent colistin concentration for conjugates; for MIC, Initial: before storage, 3 mg/mL in PBS, broth microdilution in MH broth; for MIC, storage temperature 4 °C: stored in PBS at 4 °C for 12 months; for MIC, storage temperature 4 °C / MIC, storage temperature 21 °C / MIC, storage temperature 37 °C / MIC, storage temperature -20 °C / MIC, repeat freeze–thaw: broth microdilution, MH broth; for MIC, storage temperature 21 °C: stored in PBS at 21 °C for 12 months; for MIC, storage temperature 37 °C: stored in PBS at 37 °C for 12 months; for MIC, storage temperature -20 °C: stored in PBS at -20 °C for 12 months; for MIC, repeat freeze–thaw: weekly freeze-thawing for 5 weeks (-20 °C, defrosted 1 h at 20–22 °C)
Method: as §1, §2, §3

Row | Compound | change of antimicrobial activity (MIC) after storage [1] | MIC, Initial [2] | MIC, storage temperature 4 °C [2] | MIC, storage temperature 21 °C [2] | MIC, storage temperature 37 °C [2] | MIC, storage temperature -20 °C [2] | MIC, repeat freeze–thaw [2] | MIC, Initial [3] | MIC, storage temperature 4 °C [3] | MIC, storage temperature 21 °C [3] | MIC, storage temperature 37 °C [3] | MIC, storage temperature -20 °C [3] | MIC, repeat freeze–thaw [3] | change of GPC elution profile after storage [4] | MIC, Initial [5] | MIC, storage temperature 4 °C [5] | MIC, storage temperature 21 °C [5] | MIC, storage temperature 37 °C [5] | MIC, storage temperature -20 °C [5] | MIC, repeat freeze–thaw [5]
1 | CC[C@H](C)CCCCC(=O)N[C@@H](CCN)C(=O)N[C@H](C(=O)N[C@@H](CCN)C(=O)N[C@H]1CCNC(=O)[C@H]([C@@H](C)O)NC(=O)[C@H](CCN)NC(=O)[C@H](CCN)NC(=O)[C@H](CC(C)C)NC(=O)[C@@H](CC(C)C)NC(=O)[C@H](CCN)NC1=O)[C@@H](C)O [Colistin sulfate, colistin sulfate] (X1-[Dab]T[Dab][Dab][Dab][dL]L[Dab][Dab]T; lactam 4-C (inferred); N-terminus assumed) | unaffected | 0.063 µg/mL | 0.031 µg/mL | 0.125 µg/mL | 32 µg/mL | 0.063 µg/mL | 0.063 µg/mL | 0.125 µg/mL | 0.125 µg/mL | 0.5 µg/mL | > 128 µg/mL | 0.063 µg/mL | 0.25 µg/mL | largely unchanged | 0.004 µg/mL | 0.002 µg/mL | 0.016 µg/mL | 0.25 µg/mL | 0.002 µg/mL | 0.004 µg/mL
2 | Colistimethate sodium [CMS] | unaffected | 0.5 µg/mL | 0.125 µg/mL | 0.25 µg/mL | 64 µg/mL | 0.25 µg/mL | 0.125 µg/mL | 2 µg/mL | 1 µg/mL | 1 µg/mL | 128 µg/mL | 1 µg/mL | 0.5 µg/mL | Significant changes in the elution profile | 0.125 µg/mL | 0.063 µg/mL | 0.063 µg/mL | 8 µg/mL | 0.031 µg/mL | 0.031 µg/mL
